The values that follow come from PubChem BioAssay AID504322 (Emory University Molecular Libraries Screening Center, 2011).

pIC50: −log10 of the molar value. Active and inactive are the calls of the source. No rule for the calls is given here.

The subject of this assay is CHOP reporter cell assay, percent of control. In words: CHOP reporter inhibitor potency, dose response, cell-based (AID 504322).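 Also: CHO cells carrying a CHOP reporter stimulated with tunicamycin to induce ER stress; potency is for inhibition of the stress-induced reporter signal.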
As for `CCCCc1nc2ccccc2c(=O)n1NC(=O)c1c(O)c2ccccc2n(C)c1=O`, the IC50 is > 10 µM (inactive). Turning to `Cc1ccc(C2=NN(C(=O)c3cccs3)C(c3ccccc3O)C2)cc1` (stereo not given), the IC50 is 9.38 µM (inactive).

As to `O=C(O)c1cccc(COc2ccc(CO)cc2Cl)c1`, the pIC50 was over 6.80.

Consider `CC(C)(C)c1ccc(C(=O)NC(=S)NNC(=O)c2cccs2)cc1`, for which the IC50 was 6.3 µM (inactive). Regarding `Cc1ccc(Cl)cc1NC1=C/C(=N\S(=O)(=O)c2cccs2)c2ccccc2C1=O`, the pIC50 was 5.40. Consider `Oc1ccc(Br)cc1-c1cc(-c2ccccc2F)[nH]n1`, for which the IC50 is > 10 µM (inactive). Turning to `C=C(C=O)CC1CC(O)[C@]2(C)OC3CC4OC5C[C@]6(C)O[C@]7(C)CCC8OC9C[C@]%10(C)OC%11C(C)=CC(=O)OC%11CC%10OC9C[C@@H](C)C8OC7CC6O[C@]5(C)CC5OC5C4OC3CC2O1` (stereo not given in full), the pIC50 is 6.09. The same measure, in the same setting: in the case of `O=C(Nc1ccc(S(=O)(=O)N2CCOCC2)cc1)c1ccc(CN2CCc3ccccc3C2)cc1` it was over 6.80.

Regarding `CCOC(=O)c1c(C(C)(C)C)oc2ccc(O)cc12`, the IC50 is 9.38 µM (inactive). Consider `O=C(Nc1ccc(Cl)c(C(F)(F)F)c1)NC1CC2CCCC(C1)N2Cc1ccccc1` (stereo not given), for which the IC50 is 7.84 µM (inactive). As for `COc1ccc(Cn2c(SCc3cc(C)ccc3C)nc3cc(OC)c(OC)cc3c2=N)cc1`, the IC50 is 3.55 µM (inactive). On the same count and under the same terms, in the case of `O=C(OCn1ncc(Cl)c(Cl)c1=O)c1ccc(C(F)(F)F)cc1` it was 9.59 µM (inactive); in that of `CCN(CCO)c1ncnc2c1sc1nc(CC(C)C)c3c(c12)CC(C)(C)OC3`, 9.11 µM (inactive). With `O=C1CC(c2ccccc2Cl)CC(O)=C1C=Nc1ccccc1` (stereo not given), the IC50 was 6.54 µM (inactive). Same read-out and setting: in the case of `C=CCN1C(=O)/C(=C/c2ccc(OC(C)=O)c(OCC)c2[N+](=O)[O-])SC1=S` it was 5.3 µM (inactive).

As to `COc1ccc(/C=N\NC(=O)COc2ccc(C(C)(C)C)cc2)cc1Cn1nc(C)cc1C`, the pIC50 was 5.52. As to `N=c1n(CC(=O)c2ccc([N+](=O)[O-])cc2)c2ccccc2n1Cc1ccc(Cl)cc1`, the IC50 was > 10 µM (inactive).

Take `COc1cc(OC)cc(-c2nc3ccccc3c(=O)n2OC(=O)c2ccc(Br)cc2)c1`: the IC50 was > 10 µM (inactive). On the same count and under the same terms, in the case of `O=C1N(c2ccccc2)C[C@@H]2C[C@@H](c3cccs3)N3CCC[C@@]123` it was 5.69 µM (inactive).

Turning to `CC(C)Cn1c(N)c(C(=O)COC(=O)CC23CC4CC(CC(C4)C2)C3)c(=O)n(C)c1=O`, the negative-log IC50 (pIC50) is 6.09.

With `O=C(N/N=C/c1ccc(F)cc1)c1c(O)c2ccccc2[nH]c1=O`, the IC50 was > 10 µM (inactive). Take `CCOc1cc(CNc2ccc(O)cc2)ccc1OCc1ccc(Cl)cc1Cl`: the pIC50 was 5.76. In the case of `Cc1ccc(NC(=O)CSc2nc3ccccc3c3nc(CCc4c(C)n[nH]c4C)nn23)cc1F`, the IC50 is 9.71 µM (inactive). In the case of `N#Cc1nccnc1S(=O)(=O)c1cccs1`, the negative logarithm of the IC50 (pIC50) is 5.57. `O=C1CC(c2cccc(Cl)c2)CC(O)=C1C=Nc1cccc(Cl)c1` (stereo not given): the IC50 was 9.72 µM (inactive).

Regarding `CCOC(=O)C(NC(=O)Nc1cccc(C)n1)(OCC(F)(F)F)C(F)(F)F` (stereo not given), the IC50 was > 10 µM (inactive). For `CC(C)CC(NC(=O)c1ccc(Cl)cc1)C(=O)OCC(=O)c1ccc2c(c1)NC(=O)CO2` (stereo not given), the pIC50 was 5.80. The same measure, in the same setting: in the case of `CCCCCCCCCCCCCCCC[n+]1cccc2ccccc21` it was 6.39. For `CC1=C(C)/C(=N\OS(=O)(=O)c2ccc(C)cc2)C=CC1=O`, the IC50 is 3.68 µM (inactive).

For the compound `CC(C)c1nnc(N2C(=O)c3oc4ccccc4c(=O)c3C2c2ccco2)s1` (stereo not given), the IC50 was > 10 µM (inactive). The same measure, in the same setting: in the case of `CCC(C)c1ccc(O)c(NC(=O)c2cncc(Br)c2)c1` (stereo not given) it was 6.67 µM (inactive); in that of `CC(C)c1ccc2c(c1)C1(NN=C(c3ccccc3)S1)C(=O)N2` (stereo not given), > 10 µM (inactive). As to `CC(CNC(=S)Nc1cc(F)cc(F)c1)CSc1ccc(Cl)cc1` (stereo not given), the IC50 was > 10 µM (inactive). As to `O=C(/C=C/c1cccc(C(F)(F)F)c1)Nc1cccc(C(F)(F)F)c1`, the IC50 is 2.49 µM (inactive). `COc1ccccc1-n1cc([C@@H]2C[C@H]3CN(c4ccccc4)C(=O)[C@]34CCCN24)cn1`: the pIC50 is 5.72. Still for that read-out and setting: in the case of `O=C(c1ccc2c3c(cccc13)C(=O)N(O)C2=O)N1CCCCC1` it was 5.72; in that of `Cc1ccc(-c2nc(-c3ccccn3)no2)cc1`, 5.35. `CCOc1cc(NC(=O)CCl)c(OCC)cc1NC(=O)CCl`: the IC50 is > 10 µM (inactive). Turning to `CCOC(=O)Cc1csc(NC(=O)NC2(C(F)(F)F)Oc3cc(Cl)c(Cl)cc3O2)n1`, the negative logarithm of the IC50 (pIC50) was 5.39.

As for `C=C(C)COc1ccc(-c2n[nH]c(C)c2-c2ccc(Br)cc2)c(O)c1`, the IC50 is 9.53 µM (inactive).

As for `COc1ccc(-c2cnc(OC(C)(C)C)nc2OC(C)(C)C)cc1OC`, the IC50 was 4.6 µM (inactive). In the case of `O=C1CC(c2ccccc2)CC(O)=C1C=Nc1cccc(Cl)c1` (stereo not given), the pIC50 is 5.29.

As to `O=C1CC(c2ccco2)CC(O)=C1C=Nc1ccccc1-c1ccccc1` (stereo not given), the IC50 was 2.84 µM (inactive).

With `Cc1ccc(C(C)C)c(OCC(=O)N/N=C/C2CCCCC2)c1`, the IC50 was 9.65 µM (inactive). On the same count and under the same terms, in the case of `Oc1cccc(-c2nc3c4c(ncn3n2)-c2ccccc2CC42CCCC2)c1` it was 5.25 µM (inactive); in that of `CCCCCCOC(=O)c1ccccc1N`, 6.31 µM (inactive). `O=c1c(Br)c(Br)cnn1-c1ccccc1`: the IC50 is 4.97 µM (inactive). Same read-out and setting: next, `O=C(CCl)Nc1cc(-c2ccccc2)nn1-c1ccccc1`: 9.78 µM (inactive); `CCN1/C(=C\C=C\C2=[N+](CC)c3ccccc3C2(C)C)C(C)(C)c2ccccc21`: 0.32 µM (inactive). As for `Cc1ccc(/C=C2\SC(=S)N(CCCC(=O)Nc3ccccn3)C2=O)cc1`, the pIC50 was 6.38. As for `CCN1/C(=C/C=C/C=C/c2sc3ccccc3[n+]2CC)Sc2ccccc21`, the IC50 was 0.87 µM (inactive). Same read-out and setting: next, `O=C(NCc1ccccc1Cl)c1ccc(S(=O)(=O)Nc2cccc(C(F)(F)F)c2)cc1`: > 10 µM (inactive). For the compound `O=C(Nc1cccc(F)c1)N(Cc1ccc(Cl)cc1)CC(O)C(F)(F)F` (stereo not given), the pIC50 was 5.45. Turning to `Cc1sc(NC(=O)c2cccc([N+](=O)[O-])c2)c(C(N)=O)c1-c1ccc(C(C)(C)C)cc1`, the IC50 was > 10 µM (inactive). Consider `Cc1sc2ncnc(N3CCCCC3C)c2c1C` (stereo not given), for which the IC50 is > 10 µM (inactive). On the same count and under the same terms, in the case of `Cc1cc(C(C)(C)C)oc1C(=O)N1CCN(C(=O)c2oc(C(C)(C)C)cc2C)CC1` it was 9.99 µM (inactive). Regarding `O=C(C1=C(c2ccccc2)C(=O)c2ccccc2C1=O)c1ccccc1`, the pIC50 was 5.33. With `O=c1[nH]c(NNC(=S)NC2CCCCC2)nc2c1C1(CCCC1)Cc1ccccc1-2`, the IC50 was 4.1 µM (inactive).

As to `Cc1cc(C)n(-c2nc(Nc3ccccc3C(F)(F)F)nc(-n3nc(C)cc3C)n2)n1`, the IC50 is 3.93 µM (inactive). For `CCCCc1c(C)nn(-c2nnc3c4ccccc4n(CC)c3n2)c1C`, the IC50 is 9.73 µM (inactive). Regarding `O=C(N/N=C/c1ccccn1)c1cc(-c2ccc3ccccc3c2)n[nH]1`, the IC50 is > 10 µM (inactive).

For `CCCCCCn1c(CN2CCN(Cc3ccccc3)CC2)nc2c1c(=O)n(C)c(=O)n2C`, the IC50 was 6.9 µM (inactive). Consider `O=C(CSC1c2ccccc2-c2ccccc21)N/N=C/c1ccccc1O`, for which the IC50 was > 10 µM (inactive). With `CCCOc1ccccc1C1CC(=O)NC(C)=C1C(=O)OCC(C)C` (stereo not given), the IC50 is 5.14 µM (inactive). For `C=CCc1cc(C)ccc1OCC(O)CN1CCN(c2ccccc2)CC1` (stereo not given), the IC50 was 3.94 µM (inactive).

Turning to `Cc1ccc(/C=N/n2c(C3CCCCC3)n[nH]c2=S)s1`, the IC50 is 5.3 µM (inactive).

As for `FC(F)(F)c1cccc(NC(=S)NC(c2ccccc2)c2ccccc2)c1`, the IC50 is 9.54 µM (inactive).

Consider `CCOc1cccc(CNc2ccc(O)cc2)c1OCc1ccc(Cl)cc1Cl`, for which the pIC50 is 5.34.

In the case of `Cc1cccc(/C=C2/S/C(=N/N=C3\CC4CCC3(C)C4(C)C)NC2=O)c1` (stereo not given), the IC50 was 4.97 µM (inactive). On the same count and under the same terms, in the case of `Cc1ccc2c(C)nc(Nc3nc(CSc4nc5ccccc5[nH]4)cc(=O)[nH]3)nc2c1` it was 3.8 µM (inactive); in that of `O=C(Cc1ccccc1)Nc1cccc(N2C(=O)C=CC2=O)c1`, 9.71 µM (inactive); in that of `C/C(=N\NC(=O)COc1ccc(C(C)(C)C)cc1)c1ccc(N2CCOCC2)cc1`, 9.41 µM (inactive). On the same count and under the same terms, next, `COc1ccc([C@H]2Oc3cc(O)cc(O)c3C(=O)C2[C@@H]2C(=O)c3c(O)cc(O)cc3O[C@@H]2c2ccc(OC)cc2)cc1` (stereo not given in full): > 10 µM (inactive); `CC1(c2ccccc2)CC(C)(C)n2c(O)c(C3=NC(=S)NC3=O)c3cccc1c32` (stereo not given): 9.76 µM (inactive).

`CC(C)C[C@H](NC(=O)OC(C)(C)C)c1nnc(SCC(=O)Nc2ccc(Br)cc2)o1`: the IC50 is 5.57 µM (inactive). As for `Cn1c(=O)c(C(=O)Nc2ncccc2O)c(O)c2ccccc21`, the IC50 was 9.46 µM (inactive). With `Cc1cc(C2=NNC(=NC3CC3)SC2)c(C)n1-c1ccccc1F`, the pIC50 was over 6.80.

As to `CC(C)Cn1c(N)c(C(=O)COC(=O)C2CCCCC2)c(=O)n(C)c1=O`, the IC50 was > 10 µM (inactive). In the case of `CCC(C)Sc1nc2c(c(=O)[nH]c(=O)n2C)n1Cc1ccc(Cl)cc1` (stereo not given), the IC50 is > 10 µM (inactive). On the same count and under the same terms, in the case of `Nc1nnnn1/N=C/C(Br)=C/c1ccccc1` it was 9.72 µM (inactive); in that of `CC(C)=CCc1c(O)cc2oc3c(CC=C(C)C)c(O)c(O)c(CC=C(C)C)c3c(=O)c2c1O`, 9.67 µM (inactive); in that of `COc1ccc(C2CC(c3c(-c4ccccc4)c4cc(Cl)ccc4[nH]c3=O)=NN2S(C)(=O)=O)cc1OC` (stereo not given), 8.04 µM (inactive). The same measure, in the same setting: in the case of `CCc1ccc(-c2nc(CN3CCC(C(=O)NCCN(CC)c4ccccc4)CC3)c(C)o2)cc1` it was 3.46 µM (inactive); in that of `C(=N\Nc1ncnc2sc3c(c12)CCC3)/c1cccs1`, 8.89 µM (inactive).

Take `COc1cc(/C=C(\C#N)c2nc3ccccc3[nH]2)cc(Br)c1OCc1ccc(F)cc1`: the IC50 is 6.3 µM (inactive).

The IC50 is the point on the concentration scale where inhibition reaches its midpoint. One may read the pIC50 as the IC50 on a negative log10 scale, so that one unit is a factor of ten.
